Experimental data reported in patent publication US20260083865A1, “PROSTATE SPECIFIC MEMBRANE ANTIGEN (PSMA) LIGANDS AND USE THEREOF” (priority 2022, published 2026).
Where two headings read alike, the source gives them in different places. Blank lines part the entries; values can stand above or below the molecule they belong to. Numbered stars: 1 amine (or outer) side, 2 acyl side, 3 side chain; on linkers, the order of the positions; unused ones are H or OH. Bridge positions count the residues as written; N and C are the ends. Square brackets hold non-standard residues; d marks the D form. Peptide text beside a SMILES is read from it. * marks the point of attachment. TtdsdLys(DOTA)NH2 = NC(=O)[C@@H](CCCCNC(=O)CN1CCN(CC(=O)O)CCN(CC(=O)O)CCN(CC(=O)O)CC1)NC(=O)CCC(=O)NCCCOCCOCCOCCCN*; Acetyl(1-DOTA-4-piperidyl) = O=C(O)CN1CCN(CC(=O)O)CCN(CC(=O)N2CCC(CC(=O)*)CC2)CCN(CC(=O)O)CC1; DOTA = O=C(O)CN1CCN(CC(=O)O)CCN(CC(=O)*)CCN(CC(=O)O)CC1; Phe(4-Cl) = N[C@@H](Cc1ccc(Cl)cc1)C(=O)O; X1 = O=C(CC1CCN([*:1])CC1)[*:2]; X6 = O=C(CN1CCN([*:1])CC1)[*:2]; Cit = NC(=O)NCCC[C@H](N)C(=O)O; Tle = CC(C)(C)[C@H](N)C(=O)O; Api = NC1(C(=O)O)CCNCC1; Aib = CC(C)(N)C(=O)O

Key:
[1] = target: T1, PSMA-expressing C4-2 cells (Homo sapiens, UniProt Q04609); test: FACS binding assay (competition with 50 nM PSM-0183); conditions: read-out: pIC50 [C4-2] CAT (converted)
T1 construct: PSMA-expressing C4-2 cells (ATCC, Cat. No. CRL-3314) were cultured in RPMI-1640; host or cells: C4-2 cells
T1 sequence (Q04609 whole entry): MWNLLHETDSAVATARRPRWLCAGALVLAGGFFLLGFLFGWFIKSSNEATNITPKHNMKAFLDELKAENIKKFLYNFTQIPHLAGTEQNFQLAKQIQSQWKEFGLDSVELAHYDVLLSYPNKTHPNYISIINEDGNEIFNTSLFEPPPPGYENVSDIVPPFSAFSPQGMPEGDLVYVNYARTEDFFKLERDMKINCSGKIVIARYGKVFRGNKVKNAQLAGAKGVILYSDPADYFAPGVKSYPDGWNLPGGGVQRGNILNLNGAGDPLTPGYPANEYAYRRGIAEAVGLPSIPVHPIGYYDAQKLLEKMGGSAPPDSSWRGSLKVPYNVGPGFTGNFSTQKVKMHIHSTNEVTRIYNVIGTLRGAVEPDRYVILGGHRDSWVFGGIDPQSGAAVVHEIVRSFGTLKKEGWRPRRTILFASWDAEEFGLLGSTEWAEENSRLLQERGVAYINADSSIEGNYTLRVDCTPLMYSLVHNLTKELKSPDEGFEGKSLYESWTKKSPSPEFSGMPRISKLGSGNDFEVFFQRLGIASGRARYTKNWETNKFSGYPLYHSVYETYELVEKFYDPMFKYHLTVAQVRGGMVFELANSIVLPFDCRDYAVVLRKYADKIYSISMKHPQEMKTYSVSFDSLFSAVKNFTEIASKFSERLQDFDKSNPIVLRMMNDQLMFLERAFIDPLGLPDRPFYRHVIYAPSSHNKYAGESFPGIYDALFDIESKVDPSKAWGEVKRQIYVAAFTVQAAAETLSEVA
Method in brief: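 Competition format: fluorescent tracer PSM-0183 (50 nM) displaced from PSMA on C4-2 cells by a test compound titration over 1 h at 4 °C. Bound tracer was quantified as flow-cytometric AF488 median fluorescence after washing. Four-parameter logistic fits of MFI data gave IC50 and pIC50.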

[2] = target: T2, Fc-fusion protein of human PSMA (hPSMA-Fc) (Homo sapiens, UniProt Q04609); test: Surface plasmon resonance assay (Biacore T200, single cycle kinetic); format: binding; conditions: read-out: pKD CAT (converted)
T2 construct: purchased Acro Biosystems PSA-H5264
T2 sequence (Q04609 44-750 limits assumed): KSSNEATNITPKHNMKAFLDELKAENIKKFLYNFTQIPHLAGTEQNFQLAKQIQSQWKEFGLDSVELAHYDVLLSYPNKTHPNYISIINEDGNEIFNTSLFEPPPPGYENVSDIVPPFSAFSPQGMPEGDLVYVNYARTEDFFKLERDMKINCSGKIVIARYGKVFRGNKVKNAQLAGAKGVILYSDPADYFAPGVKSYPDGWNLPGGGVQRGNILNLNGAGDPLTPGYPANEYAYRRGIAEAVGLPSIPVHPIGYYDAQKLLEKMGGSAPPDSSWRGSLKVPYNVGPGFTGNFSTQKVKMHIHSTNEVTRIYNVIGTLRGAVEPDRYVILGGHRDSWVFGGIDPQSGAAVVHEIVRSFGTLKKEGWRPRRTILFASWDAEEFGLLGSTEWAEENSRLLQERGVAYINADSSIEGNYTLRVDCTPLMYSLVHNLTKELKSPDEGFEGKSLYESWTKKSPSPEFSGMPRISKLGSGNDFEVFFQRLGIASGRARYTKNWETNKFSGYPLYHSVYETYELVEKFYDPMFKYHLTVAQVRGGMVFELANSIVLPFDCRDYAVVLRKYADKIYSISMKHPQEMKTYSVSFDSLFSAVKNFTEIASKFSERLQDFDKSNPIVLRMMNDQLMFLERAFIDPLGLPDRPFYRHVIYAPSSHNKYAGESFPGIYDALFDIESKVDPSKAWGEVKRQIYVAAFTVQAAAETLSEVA
Method in brief: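 KD, expressed as pKD, came from 1:1 Langmuir fits of reference- and buffer-blank-subtracted SPR data. The runs were single-cycle kinetics at 25° C in HBST/0.1% DMSO over human PSMA-Fc, captured to ~1000 RU on a peptide-coated CM5 surface and regenerated with 10 mM glycine pH 1.5.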

[3] = FACS binding, C4-2 cells, competition with 50 nM PSM-0183, category
[4] = SPR, hPSMA-Fc, single cycle kinetic, 25° C., category
[5] = pIC50 category of FACS binding, C4-2 cells
[6] = pKD category for PSMA SPR activity assay, hPSMA-Fc, 25° C.
[7] = FACS binding, PSMA-expressing C4-2 cells, pIC50 category
[8] = PSMA SPR assay, hPSMA-Fc, 25° C., pKD category

Compound: CC(=O)N[C@H](C(=O)NC(C)(C)C(=O)N[C@@H](Cc1ccccc1)C(=O)N[C@H]1CSSC[C@@H](C(=O)N[C@H](C(=O)N[C@H](C(=O)NCCCOCCOCCOCCCNC(=O)CCC(=O)N[C@H](CCCCNC(=O)CN2CCN(CC(=O)O)CCN(CC(=O)O)CCN(CC(=O)O)CC2)C(N)=O)[C@@H](C)O)C(C)(C)C)NC(=O)[C@H](CC(N)=O)NC(=O)[C@H](C)NC(=O)[C@H](CCCNC(=N)N)NC(=O)[C@H](CCCCN)NC1=O)[C@@H](C)O [PSM-0231, Ac-Thr-Aib-Phe-[Cys-Lys-Arg-Ala-Asn-Cys]-Tle-Thr-Ttds-lys(DOTA)-NH2] (Ac-T[Aib]FCKRANC[Tle]T-{TtdsdLys(DOTA)NH2}; disulfide 4-9)
IC50 [1, 3]: < 200 nM
Kd [2, 4]: < 12.6 nM

Compound: CC(=O)N[C@H](C(=O)NC(C)(C)C(=O)N[C@@H](Cc1ccc(Cl)cc1)C(=O)N[C@H]1CSSC[C@@H](C(=O)N[C@H](C(=O)N[C@H](C(=O)O)[C@@H](C)O)C(C)(C)C)NC(=O)[C@H](CC(N)=O)NC(=O)C(C)(C)NC(=O)[C@H](CCCNC(=N)N)NC(=O)[C@H](CCCCN)NC1=O)[C@@H](C)O [PSM-0493, Ac-Thr-Aib-Pcf-[Cys-Lys-Arg-Aib-Asn-Cys]-Tle-Thr-OH] (Ac-T[Aib][Phe(4-Cl)]CKR[Aib]NC[Tle]T-OH; disulfide 4-9)
IC50 [1, 5]: < 200 nM
Kd [2, 6]: < 12.6 nM

Compound: C[C@@H](O)[C@H](NC(=O)[C@@H](NC(=O)[C@@H]1CSSC[C@H](NC(=O)[C@H](Cc2ccccc2)NC(=O)C(C)(C)NC(=O)CN2CCN(C(=O)CN3CCN(CC(=O)O)CCN(CC(=O)O)CCN(CC(=O)O)CC3)CC2)C(=O)N[C@@H](CCCCN)C(=O)N[C@@H](CCCNC(=N)N)C(=O)NC(C)(C)C(=O)N[C@@H](CC(N)=O)C(=O)N1)C(C)(C)C)C(N)=O [PSM-0413, DOTA-PPAc-Aib-Phe-[Cys-Lys-Arg-Aib-Asn-Cys]-Tle-Thr-NH2] ({DOTA}-[X6][Aib]FCKR[Aib]NC[Tle]T-NH2; disulfide 4-9)
IC50 [1, 5]: < 200 nM
Kd [2, 6]: 12.6 to 126 nM

Compound: CC(=O)N[C@H](C(=O)NC(C)(C)C(=O)N[C@@H](Cc1ccc(Cl)cc1)C(=O)N[C@H]1CSSC[C@@H](C(=O)N[C@H](C(=O)N[C@H](C(=O)N[C@H](CCCCNC(=O)CC2CCN(C(=O)CN3CCN(CC(=O)O)CCN(CC(=O)O)CCN(CC(=O)O)CC3)CC2)C(N)=O)[C@@H](C)O)C(C)(C)C)NC(=O)[C@H](CC(N)=O)NC(=O)C(C)(C)NC(=O)[C@H](CCCNC(N)=O)NC(=O)[C@H](CCCCN)NC1=O)[C@@H](C)O [PSM-0322, Ac-Thr-Aib-Pcf-[Cys-Lys-Cit-Aib-Asn-Cys]-Tle-Thr-lys (DOTA-Cmp)-NH2] (Ac-T[Aib][Phe(4-Cl)]CK[Cit][Aib]NC[Tle]T[dK](Acetyl(1-DOTA-4-piperidyl))-NH2; disulfide 4-9)
IC50 [1, 7]: < 200 nM
Kd [2, 8]: 12.6 to 126 nM

Next, values leading:

IC50 ([1]; FACS binding, C4-2 cells, category): < 200 nM
Kd ([2]; PSMA SPR assay, category): < 12.6 nM
Compound: CC(=O)NC(=N)NCCC[C@@H]1NC(=O)[C@H](CCCCN)NC(=O)[C@@H](NC(=O)[C@H](Cc2ccc(Cl)cc2)NC(=O)C(C)(C)NC(=O)[C@@H](NC(C)=O)[C@@H](C)O)CSSC[C@@H](C(=O)N[C@H](C(=O)N[C@H](C(N)=O)[C@@H](C)O)C(C)(C)C)NC(=O)[C@H](CC(N)=O)NC(=O)C(C)(C)NC1=O [PSM-0569, Ac-Thr-Aib-Pcf-[Cys-Lys-Arg(Ac)-Aib-Asn-Cys]-Tle-Thr-NH2] (Ac-T[Aib][Phe(4-Cl)]CKR(Ac)[Aib]NC[Tle]T-NH2; disulfide 4-9)

IC50 [1, 3]: < 200 nM
Kd [2, 4]: 12.6 to 126 nM
Compound: C[C@@H](O)[C@H](NC(=O)[C@@H](NC(=O)[C@@H]1CSSC[C@H](NC(=O)[C@H](Cc2ccc(Cl)cc2)NC(=O)C(C)(C)NC(=O)CC2CCN(C(=O)CN3CCN(CC(=O)O)CCN(CC(=O)O)CCN(CC(=O)O)CC3)CC2)C(=O)N[C@@H](CCCCN)C(=O)N[C@@H](CCCNC(=N)N)C(=O)NC(C)(C)C(=O)N[C@@H](CC(N)=O)C(=O)N1)C(C)(C)C)C(N)=O [PSM-0248, DOTA-Cmp-Aib-Pcf-[Cys-Lys-Arg-Aib-Asn-Cys]-Tle-Thr-NH2] ({DOTA}-[X1][Aib][Phe(4-Cl)]CKR[Aib]NC[Tle]T-NH2; disulfide 4-9)

IC50 [1, 7]: < 200 nM
Kd [2, 8]: < 12.6 nM
Compound: CC(=O)N[C@H](C(=O)NC(C)(C)C(=O)N[C@@H](Cc1ccccc1)C(=O)N[C@H]1CSSC[C@@H](C(=O)N[C@H](C(=O)N[C@H](C(N)=O)[C@@H](C)O)C(C)(C)C)NC(=O)[C@H](CC(N)=O)NC(=O)C2(CCN(C(=O)CN3CCN(CC(=O)O)CCN(CC(=O)O)CCN(CC(=O)O)CC3)CC2)NC(=O)[C@H](CCCNC(=N)N)NC(=O)[C@H](CCCCN)NC1=O)[C@@H](C)O [PSM-0321, Ac-Thr-Aib-Phe-[Cys-Lys-Arg-Apc (DOTA)-Asn-Cys]-Tle-Thr-NH2] (Ac-T[Aib]FCKR[Api](DOTA)NC[Tle]T-NH2; disulfide 4-9)
